# Test results published in US20250268898A1, “METHODS OF TREATING SYNOVIAL SARCOMA PATHOGENESIS BY SUMO2 INHIBITION” (Sanford Burnham Prebys Medical Discovery Institute, priority 2024, published 2025).
# Entries after “also recorded” stand apart in the source; their conditions may differ.
# Columns and labels:
# SS18-SSX1 protein = assay: Western blot for SS18-SSX fusion protein levels; assay type: cell-based, human
# Procedure: shRNAs targeting SUMO2 were cloned into a tetracycline-inducible plasmid and expressed in HS-SYII cells. Small hairpin RNAs (shRNAs) for SUMO2 were cloned into the all-in-one-Tet vector and packaged into lentivirus using pMD and pPax2. A cell suspension containing about 300,000 HS-SY-II and SYO1 cells were seeded into six-well culture plates overnight for about 12-14 hours. Transfections were performed with Lipofectamine 2000 reagent. At about 48 hours after transfection, media was changed and puromycin selected for about 2 days. After selection, cells were subjected to a previously determined amount of doxycycline, about 4.5 μg/ml, for about 48 hours. Cells were harvested for qPCR quantification and western blot analysis.
# The effect of Compound 1 was compared to the effect of SUMO2 knockdown by shRNA.
# SS18-SSX fusion = assay: Spike-in normalized CUT&RUN of SS18-SSX chromatin occupancy; assay type: cell-based, human
# Procedure: Subsequent studies sought to determine the mechanism behind Compound 1 treatment and the observed attenuation of SS18-SSX expression activity. Initial studies utilizing Cleavage Under Targets & Release Using Nuclease (CUT&RUN) focused on determining whether Compound 1 affects the chromatin occupancy of the SS18-SSX fusion protein. […] Since increased H2AK119ub deposition has been linked to the pathogenic activity of the SS18-SSX fusions, H2AK119 ubiquitination was assessed in Compound 1-treated cells.
# H2AK119ub [1] = assay: ChIP-sequencing of H2AK119ub; assay type: cell-based, human
# Aska-SS cells = assay: CellTiter-Glo viability, 2D and 3D cultures; assay type: cell-based; settings: over 2, 3, and 4 days
# Procedure: (§1) To investigate whether the reduction of proliferation by Compound 1 was due to apoptosis and necrosis in synovial sarcoma cell lines, flow cytometric analyses were performed with cells treated with Compound 1 and untreated cells stained with Annexin V-FITC apoptosis marker, as well as Propidium Iodide necrosis marker for cells in media containing Compound 1 and media only containing DMSO. The proliferation assay was performed using Cell Titer Glo Luminescent Cell Viability Assay (Promega). Cell numbers were optimized for 384-well plate for each cell line. SUMO2 inhibitors including Compound 1 were dissolved in DMSO and echo dotted onto a 384-well plate in varying concentrations, with the final concentration of DMSO at about 0.08% in each well. About 25 μL of cell suspension, a concentration of about 50,000 cells/mL were seeded in each well of a 384-well plate. […] Luminescence was recorded with a plate reader (BMG FLUOStar). The EC50 values were calculated by Graphpad Prism software. Apoptosis was quantified by flow cytometry using Annexin V-FITC kit from BD Biosciences. […] The samples were then analyzed by flow cytometry using Fortessa along with FlowJo analysis software. Cell lines analyzed were HS-SY-II (left) and SYO1 (right) (FIG. 3G). […]
# H2AK119ub [2] = assay: H2AK119ub immunoblotting; assay type: cell-based, human
# Aska-SS flank tumors = assay: Flank tumor xenograft in nude mice; assay type: in vivo
# Procedure: (§2) To determine the antitumor activity of Compound 1 in vivo, either Aska-SS cells (harboring the SS18-SSX1 fusion) or SYO1 cells (harboring the SS18-SSX2 fusion) were injected into the flanks of nude mice. When tumors became palpable, mice were treated with 25 mg/kg of Compound 1 or vehicle.
# (§3) Flank tumors were harvested, sectioned, and stained with hematoxylin and eosin and analyzed with IHC for tumoricidal markers.
# SYO1 flank tumors = assay: Flank tumor xenograft in nude mice; assay type: in vivo
# Procedure: as §2, §3
# SYO1 cells [3] = assay: Colony-forming assay (crystal violet); assay type: cell-based, human; settings: Compound 1 titration series
# Procedure: Further testing of Compound 1 was performed on 2D and 3D cultures for SYO1 and Aska-SS cell lines to determine whether these culture conditions resist Compound 1 treatment.
# HS-SY-II cells = assay: Colony-forming assay (crystal violet); assay type: cell-based, human; settings: Compound 1 titration series
# [4] = target: T1, Sumo-Activating Enzyme 1 (SAE1) or Sumo-Activating Enzyme 2 (SAE2) (Homo sapiens, UniProt Q9UBE0+Q9UBT2); assay: Interruption of the SUMO cycle (SAE inhibition); settings: E1 Ligase Activation step
# T1 sequence (Q9UBE0 1-346): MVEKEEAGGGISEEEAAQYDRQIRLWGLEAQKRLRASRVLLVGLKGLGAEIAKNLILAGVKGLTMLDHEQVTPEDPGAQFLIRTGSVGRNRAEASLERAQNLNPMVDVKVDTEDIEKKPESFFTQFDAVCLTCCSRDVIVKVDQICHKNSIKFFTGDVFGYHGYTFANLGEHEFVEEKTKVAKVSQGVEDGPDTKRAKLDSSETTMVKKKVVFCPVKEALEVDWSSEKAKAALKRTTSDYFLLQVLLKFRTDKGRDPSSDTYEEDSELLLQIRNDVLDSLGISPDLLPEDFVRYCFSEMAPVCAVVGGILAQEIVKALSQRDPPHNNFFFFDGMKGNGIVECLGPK
# T1 sequence (Q9UBT2 1-640): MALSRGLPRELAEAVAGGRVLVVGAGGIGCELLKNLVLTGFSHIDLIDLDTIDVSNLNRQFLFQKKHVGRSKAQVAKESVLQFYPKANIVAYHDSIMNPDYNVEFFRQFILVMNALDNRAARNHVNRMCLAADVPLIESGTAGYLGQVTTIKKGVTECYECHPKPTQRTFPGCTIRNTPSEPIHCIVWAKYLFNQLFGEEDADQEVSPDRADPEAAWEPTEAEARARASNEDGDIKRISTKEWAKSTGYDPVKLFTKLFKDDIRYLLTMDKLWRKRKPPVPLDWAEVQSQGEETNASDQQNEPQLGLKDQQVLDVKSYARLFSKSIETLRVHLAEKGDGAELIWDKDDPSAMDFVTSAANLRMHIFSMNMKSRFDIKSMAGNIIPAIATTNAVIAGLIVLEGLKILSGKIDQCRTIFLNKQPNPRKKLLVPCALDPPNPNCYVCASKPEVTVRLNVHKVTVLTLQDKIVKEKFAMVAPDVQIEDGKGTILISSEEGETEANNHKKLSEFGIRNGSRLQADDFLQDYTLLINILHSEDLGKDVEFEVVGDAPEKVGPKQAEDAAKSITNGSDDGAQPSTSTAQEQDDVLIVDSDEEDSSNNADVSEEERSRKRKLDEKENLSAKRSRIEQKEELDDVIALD
# HS-SY-II and SYO1 cells = assay: Total RNA sequencing, Compound 1 vs DMSO; assay type: cell-based, human
# Procedure: To comprehensively interrogate the transcriptomic changes occurring in synovial sarcoma cells, HS-SY-II and SYO1 cells were cultured in media containing DMSO and media containing Compound 1 and subjected to total RNA sequencing. HS-SY-II and SYO1 cells were contacted with either Compound 1 at concentrations of between about 25 nM and about 100 nM, or DMSO for 48 hours. The cell suspensions were pelleted, and RNA was extracted with varying concentrations. TRIzol Reagent was used to extract total RNA from SYO1, and HS-SY-II cell pellets, and strands were synthesized using Protoscript II (NEB) with poly A selection. qPCR was performed using TaqMan Gene Expression Master Mix and FAM probes for SUMO2, HPRT, and GAPDH. Paired-end (2×100 bp) sequencing was performed on the NovaSeq 6000 Sequencing System. Data Processing and QC was completed using FastQC and QC summarization was done by MultiQC. Mapping to human genome hg38 v84 was done using STAR sequence aligner, and expression was estimated using RSEM. DESeq2 was used for differential expression analysis, and IPA algorithm was used in evaluation of upstream pathway regulators.
# The RNA-seq reads were analyzed for each sample to the human reference genome GRCh38 using STAR aligner. Expression estimation was conducted using RSEM followed by differential expression calling using DESeq2. For target genes of interest in both HS-SY-II and SYO1, a total of 960 differentially expressed target genes of interest (DEGs) were analyzed using […] (FIG. 4A).
# Upregulation of target genes of interest activated by the chimeric SS18-SSX fusion protein in DMSO media and in media containing Compound 1 were mapped with size and […] (FDR) quantified, based on […] (NES) values (FIG. 4D). Expression of various target genes of interest, upregulation, and downregulation by SS18-SSX fusion genomes, were measured in contact with varying concentrations of Compound 1 (FIG. 4E). Heat maps were created mapping the various target genes of interest cultured in media containing only DMSO, compared to media containing Compound 1, for multiple samples (FIG. 4F-4G). Enrichment scores were calculated using gene set enrichment analysis for HS-SY-II cells in contact with DMSO and varying concentrations of Compound 1 for target genes of interest (FIG. 4H). Additional experiments comparing gene expression differences due to DMSO or Compound 1 on SYO-II and HS-SY-II cells were performed. Not only were SS18-SSX-regulated genes affected by Compound 1 treatment, but other genes also impacted included the HOX genes: HOXC6, HOXA10 as well as SRSF1 and TYMS. (FIG. 4I).
# SYO1 cells [5] = assay: CellTiter-Glo viability, 2D and 3D cultures; assay type: cell-based, human; settings: over 2, 3, and 4 days
# Procedure: as §1
# 12273/99 cells = assay: Colony-forming assay (crystal violet); assay type: cell-based, human; settings: Compound 1 titration series
# [6] = 25 mg/kg, 3 intraperitoneal injections a week for 5 weeks, vs vehicle
# [7] = Ki-67 staining of tumor sections, vs vehicle-treated tumors
# [8] = harvested flank tumors, vs vehicle-treated tumors
compound,measurement,setting,value
Cc1sc(C(=O)c2cncnc2N[C@@H]2C[C@H](COS(N)(=O)=O)[C@@H](O)C2)cc1[C@@H]1NCCc2ccc(Cl)cc21 [Compound 1],levels of SS18-SSX1 protein,SS18-SSX1 protein; HS-SY-II cell line,reduction in the levels
same,levels of SS18-SSX1 fusion,SS18-SSX1 protein; SYO1 cell lines,reduction in the levels
same,SS18-SSX fusion occupancy at SS18-SSX-repressed target GADD45B,SS18-SSX fusion,diminished SS18-SSX fusion occupancy; also recorded: decrease of SS18-SSX occupation of this gene
same,SS18-SSX occupancy at SS18-SSX-activated targets HOXA10 and SOX8,SS18-SSX fusion,lost SS18-SSX occupancy; also recorded: decrease of SS18-SSX occupation
same,SS18-SSX2 fusion genomic occupancy,SS18-SSX fusion; Compound 1-treated compared to vehicle-treated arms,substantial decrease
same,reduction in genome-wide chromatin binding signal of the SS18-SSX fusion (FRiP),"SS18-SSX fusion; SYO1 cells, compared to DMSO treated cells",1.87 fold
same,fusion-binding signal at synovial sarcoma target genes (meta-analysis),SS18-SSX fusion; maximum signal centered around the transcription start site,reduction in the fusion binding
same,H2AK119ub at GADD45B,H2AK119ub [1],reduced H2AK119ub
same,reduction of genome-wide H2AK119ub levels (FRiP),"H2AK119ub [1]; SYO1 cells, versus DMSO-treated",1.53 fold
same,H2AK119ub genome-wide,H2AK119ub [1]; compared to DMSO-treated cells,substantial reduction
same,viability as measured by CellTiter-Glo,Aska-SS cells,progressive and marked decrease in viability; also recorded: affected in a Compound 1 concentration-dependent manner
same,H2AK119ub by immunoblotting,H2AK119ub [2]; 1273/99 cell line,marked reduction
same,H2AK119ub by immunoblotting,H2AK119ub [2]; Aska cell line,marked reduction
same,H2AK119ub by immunoblotting,H2AK119ub [2]; HS-SY-II cell line,marked reduction
same,H2AK119ub by immunoblotting,H2AK119ub [2]; SYO1 cell line,marked reduction
same,tumor growth,Aska-SS flank tumors; [6],reduction of tumor growth
same,tumor volumes,Aska-SS flank tumors; [6],significantly reduced
same,tumor weights,Aska-SS flank tumors; [6],significantly reduced
same,decrease in Ki67 positivity,Aska-SS flank tumors; [7],~60%
same,"number of cells per unit area (tumor cellularity, hematoxylin and eosin)",Aska-SS flank tumors; [8],marked reduction
same,tumor growth,SYO1 flank tumors; [6],reduction of tumor growth
same,tumor volumes,SYO1 flank tumors; [6],significantly reduced
same,tumor weights,SYO1 flank tumors; [6],significantly reduced
same,decrease in Ki67 positivity,SYO1 flank tumors; [7],~60%
same,"number of cells per unit area (tumor cellularity, hematoxylin and eosin)",SYO1 flank tumors; [8],marked reduction
same,colony formation,SYO1 cells [3],dramatic and dose-dependent reduction in colony formation
same,colony formation,HS-SY-II cells,dramatic and dose-dependent reduction in colony formation
same,interruption of the SUMO cycle,[4],interrupt the SUMO cycle at the E1 Ligase Activation step
same,expression of GADD45B,HS-SY-II and SYO1 cells,increased expression (de-repression); also recorded: increase in its expression
same,expression of HOXA10 and SOX8,HS-SY-II and SYO1 cells,reduced expression
same,"expression of key cancer-associated genes upregulated by the SySa fusion (CDX2, HOXA10, SUZ12, TYMS, AURKB, HOXC10, SMC2)","HS-SY-II and SYO1 cells; HS-SY-II and SYO1, vs DMSO",downregulated
same,"expression of HOXC6, HOXA10, SRSF1 and TYMS","HS-SY-II and SYO1 cells; SYO1 and HS-SY-II cells, vs DMSO",impacted
same,expression of SS18-SSX-regulated genes,"HS-SY-II and SYO1 cells; SYO-II and HS-SY-II cells, vs DMSO",affected
same,viability as measured by CellTiter-Glo,SYO1 cells [5],progressive and marked decrease in viability; also recorded: affected in a Compound 1 concentration-dependent manner
same,colony formation,12273/99 cells,dramatic and dose-dependent reduction in colony formation
